Measurements reported in US6159940A, “Method for modulating hemopoiesis” (Immunotech Developments Inc., priority 1999, dated 2000).
Where a SMILES comes first, the peptide text is derived from it.

Tests used:
CFU-S-8 and CFU-S-12 = assay: Cytostatic (Cytosine-Arabinoside)-induced cytopenia: karyocytes, CFU-S-8, CFU-S-12 in bone marrow; type: in vivo, mice; conditions: donor bone marrow; CA 20 mg/kg i.p. once; N 10 μg/kg once daily, three injections
Procedure: Used as a cytostatic, Cytosine-Arabinoside (CA) was intraperitoneally injected to donor mice once in the dose of 20 mg/kg. The peptide was given according to the following scheme: 10 μg/kg once daily, three injections starting from the first hour after CA. Intact mice received H-Ile-Glu-Trp-OH in the same doses and according to the same schedule. On day 8 after the cytostatic injection, determined were karyocyte count in the donor bone marrow and the content of hemopoietic progenitors of different polipotencies: committed CFU-S-8 and CFU-S-12. CFU-8 are committed stem cells which later undergo differentiation. CFU-12 are the polypotent cells, from which stem cells can be recruited (i.e. they maintain the pool of stem cells). This is a slowly proliferating cell population, mainly in G phase. That is why it is important to evaluate the effect of a preparation on the pools of both committed (CFU-8) and polypotent (CFU- 12) cells. To this end, bone marrow was extracted from donor's femoral bones and injected to lethally irradiated recipients. After the cell injections, every test group was divided into 2 subgroups: some animals were killed on day 8, the other on day 12. Spleens were taken out and the colonies were counted. The tests were carried out on 105 mice.

Thymoma EL-4 cells = Thymoma EL-4 cells incubated with peptide and oxyurea, transplanted to mice: tumor growth and survival; type: in vivo, C57B1 mice
Procedure: The Thymoma EL-4 cells were extracted from the abdomen cavity of C57B1 mice at the 7th day after transplantation. The suspension was washed by centrifugation in the medium RPMI. Then the cells were resuspended in the growth medium (RPMI+10% of embryo serum+0.1% penicillin/streptomycin) and were split in culture flasks 5 ml each ([…] per flask). 2 mg of the preparation were added (20 μl) to each probe. After 18 hours of incubation (37 degrees Celsius CO2), OU was added to the half of probes (1 mg per 5 ml). Incubation was done for 1 more hour in the same conditions and then cells were washed out by centrifugation in the medium RPMI. The precipitated cells were resuspended in calculation 1 ml per 0.2 ml of RPMI medium and then transplanted to the mice C57B1 under the back skin.
The taking of the measurements of the size of the tumor was started after the knot became visible. The tumor was measured every day until it was impossible to measure. The survival ability of the mice was examined during 60 days after transplantation. Mice that survived after this period were considered to be cured. Each experimental group consisted of 6 animals.

CFU-S = assay: Spleen colony formation from RAMBS-treated bone marrow in lethally irradiated mice; type: in vivo, (CBA×C57BL)F1 female mice; conditions: RAMBS-treated bone marrow + preparation, lethally irradiated mice
From the text: (CBA×C57BL)F1 female mice (n=2500), 2-months old, weighing about 20 g, were used in the experiment.
As is known, there is a close relationship between T-cells and hemopoietic progenitors. It was shown that, along with colony-forming units of spleen (CFU-S), thymocytes participate in colony formation of spleens of irradiated mice by controlling proliferation of the hemopoietic progenitor cells. The fact was established in a test system, which allowed a selective removal of accessory T-cells from bone marrow with the help of rabbit antimouse brain antiserum (RAMBS) and their substitution with other factors. Aliquots (0.1 ml) of bone marrow suspension (2×10^7 cells), RAMBS, and medium 199 were mixed and incubated for 1 hour at 37° C. Then the cells were washed with centrifuging, resuspended and injected to lethally irradiated mice.
According to the aforesaid scheme, instead of thymocytes mice received the peptide, H-Ile-Glu-Trp-OH injections 30 minutes before the injections of RAMBS-treated bone marrow suspension.

[1] = 60 days after transplantation of treated EL-4 cells

## Nc1ccn([C@@H]2O[C@H](CO)[C@@H](O)[C@@H]2O)c(=O)n1 [CA, Cytosine-Arabinoside, reference compound]
CFU-S-8 and CFU-S-12
  Day 8 COUNT CFU-S-8: 1270 ± 53
  Day 8 COUNT CFU-S-12: 1244 ± 71
  Day 8 COUNT Karyocytes: 17.5 ± 0.8 × 10^6

## NC(=O)NO [OU, oxyurea, reference compound]
Thymoma EL-4 cells; [1]
  % of Survival: 0%
  Number of Survived Mice From 6: 0/6
Thymoma EL-4 cells; intact tumor cells treated with OU (FIG. 3)
  delay in the tumor growth: ~12 days
Thymoma EL-4 cells; mice with Thymoma EL-4
  increase in lifetime versus control: 5 days

## N[C@@H](CCC(=O)O)C(=O)N[C@@H](Cc1c[nH]c2ccccc12)C(=O)O [Thymogen, H-Glu-Trp-OH, reference compound] (H-Glu-Trp-OH)
CFU-S
  Average Colony Count: 2.9+/-0.3
